Assays:
[1] = molecular target: T1, Recombinant human integrin αvβ6 (Homo sapiens, UniProt P06756+P18564); test: Solid Phase Receptor Assay for αvβ6 Function; conditions: binding to LAP-coated plate; read-out: αvβ6 SPRA IC50
T1 construct: purchased R&D Systems 3817-AV
Protocol: Solid Phase Receptor Assay for αvβ6 Function.
(§1) Wells were washed 3 times with 150 μL TBS+, and 150 μL of blocking buffer (TBS+ with 1% bovine serum albumin, Sigma A7906) were added. The plate was incubated for 1 hr at 37° C., and then washed 3× with TBS+ buffer. […] Compounds were diluted 1:100 into the integrin solution and then 50 μL added to empty wells of the washed LAP-coated plate according to a standard template with each sample repeated in triplicate. After incubation for two hours at room temperature, the plate was washed 3× with 150 μL of TBS+ buffer. To each well, 50 μL of biotinylated anti-αv antibody (R&D Systems, BAF1219) at 0.5 μg/mL in TBS+/0.1% BSA were added and the plate was covered and incubated for 1 hr at room temperature. After washing the plate 3× with 150 μL of TBS+ buffer, 50 μL of streptavidin-conjugated horseradish peroxidase (R&D Systems, DY998) diluted in TBS+ blocking buffer were added to the wells and the plate incubated for 20 min at room temperature. The plate was washed 3× with TBS+ buffer followed by 50 μL of TMB substrate (Sigma T4444) added to each well and the plate incubated for 20 min at room temperature. The reaction was optionally stopped with 25 μL of Stop Solution (Sigma S5689). Plates were read by colorimetric detection at 650 nm wavelength using a Tecan Safire II plate reader.

[2] = molecular target: T2, Recombinant human integrin α5β1 (Homo sapiens, UniProt P05556+P08648); test: Solid Phase Receptor Assay for α5β1 Function; conditions: binding to fibronectin-coated plate; read-out: α5β1 SPRA IC50
T2 construct: purchased R&D Systems 3230-A5
T2 sequence (P08648 42-995 limits assumed): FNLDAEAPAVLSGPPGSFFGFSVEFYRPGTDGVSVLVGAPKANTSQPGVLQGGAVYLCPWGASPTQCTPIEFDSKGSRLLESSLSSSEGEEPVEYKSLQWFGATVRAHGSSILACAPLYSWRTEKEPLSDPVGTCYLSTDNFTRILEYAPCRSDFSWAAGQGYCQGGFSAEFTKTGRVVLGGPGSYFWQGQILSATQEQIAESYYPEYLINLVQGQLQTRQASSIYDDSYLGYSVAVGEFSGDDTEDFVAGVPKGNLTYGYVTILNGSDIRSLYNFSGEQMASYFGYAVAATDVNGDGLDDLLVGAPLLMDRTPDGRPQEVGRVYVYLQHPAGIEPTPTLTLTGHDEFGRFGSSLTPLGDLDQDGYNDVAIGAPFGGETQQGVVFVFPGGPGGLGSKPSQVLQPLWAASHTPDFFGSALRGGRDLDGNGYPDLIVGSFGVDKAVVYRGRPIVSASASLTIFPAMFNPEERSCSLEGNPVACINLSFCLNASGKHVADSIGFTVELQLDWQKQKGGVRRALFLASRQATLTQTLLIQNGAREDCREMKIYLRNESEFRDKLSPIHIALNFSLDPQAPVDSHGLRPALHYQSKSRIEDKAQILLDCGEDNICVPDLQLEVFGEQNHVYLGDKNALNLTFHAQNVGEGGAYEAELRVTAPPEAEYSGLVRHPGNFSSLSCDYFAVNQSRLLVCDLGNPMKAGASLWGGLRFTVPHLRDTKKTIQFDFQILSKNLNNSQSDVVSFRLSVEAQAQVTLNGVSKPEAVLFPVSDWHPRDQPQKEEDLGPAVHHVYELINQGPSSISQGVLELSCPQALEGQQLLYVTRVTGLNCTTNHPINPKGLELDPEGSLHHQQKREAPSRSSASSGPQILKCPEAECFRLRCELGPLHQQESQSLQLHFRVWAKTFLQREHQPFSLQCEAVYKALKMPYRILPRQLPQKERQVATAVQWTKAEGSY
T2 sequence (P05556 21-728 limits assumed): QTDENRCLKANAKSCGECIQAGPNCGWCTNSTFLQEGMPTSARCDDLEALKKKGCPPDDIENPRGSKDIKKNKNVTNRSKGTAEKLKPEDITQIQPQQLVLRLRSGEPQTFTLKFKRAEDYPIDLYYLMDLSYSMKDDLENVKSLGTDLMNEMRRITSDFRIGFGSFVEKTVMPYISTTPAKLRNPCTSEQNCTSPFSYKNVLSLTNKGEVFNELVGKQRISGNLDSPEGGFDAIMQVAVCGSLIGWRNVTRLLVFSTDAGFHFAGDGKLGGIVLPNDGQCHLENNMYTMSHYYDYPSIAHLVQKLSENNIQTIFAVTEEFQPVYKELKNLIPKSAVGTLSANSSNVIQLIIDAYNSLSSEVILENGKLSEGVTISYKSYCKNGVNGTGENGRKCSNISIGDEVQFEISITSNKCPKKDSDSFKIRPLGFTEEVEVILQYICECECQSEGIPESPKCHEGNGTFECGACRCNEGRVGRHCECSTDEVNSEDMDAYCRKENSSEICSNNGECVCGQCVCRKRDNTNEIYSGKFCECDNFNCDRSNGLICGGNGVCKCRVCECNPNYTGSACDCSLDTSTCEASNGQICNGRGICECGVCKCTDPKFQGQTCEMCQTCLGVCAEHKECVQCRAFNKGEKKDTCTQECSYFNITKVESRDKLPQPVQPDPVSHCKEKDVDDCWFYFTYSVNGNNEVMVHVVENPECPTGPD
Protocol: Solid Phase Receptor Assay for α5β1 Function.
Wells were washed 3 times with 150 μL TBS+ and 150 μl of blocking buffer (TBS+ with 1% bovine serum albumin, Sigma A7906) were added. The plate was incubated for 1 hr at 37° C. and then washed 3× with TBS+ buffer. […] Compounds were diluted 1:100 into the integrin solution and then 50 μL added to empty wells of the washed fibronectin-coated plate according to a standard template with each sample repeated in triplicate. After incubation for two hours at room temperature, the plate was washed 3× with 150 μL of TBS+ buffer. To each well, 50 μL of biotinylated anti-α5 antibody (R&D Systems, BAF1864) at 0.5 ug/mL in TBS+/0.1% BSA were added and the plate covered and incubated for 1 hr at room temperature. After washing the plate 3× with 150 μL of TBS+ buffer, 50 μL of streptavidin-conjugated horseradish peroxidase (R&D Systems, DY998) diluted in TBS+ blocking buffer were added to the wells and the plate incubated for 20 min at room temperature. The plate was washed 3× with TBS+ buffer followed by 50 μL of room temperature TMB substrate (Sigma, T444) added to each well and the plate incubated for 20 min at room temperature. The reaction was optionally stopped with 25 μL of Stop Solution (Sigma S5689). Plates were read by colorimetric detection at 650 nm wavelength using a Tecan Safire II plate reader.

[3] = molecular target: T3, Recombinant human integrin αvβ5 (Homo sapiens, UniProt P06756+P18084); test: Solid Phase Receptor Assay for αvβ5 Function; conditions: binding to vitronectin-coated plate; read-out: αvβ5 SPRA IC50
T3 construct: purchased R&D Systems 2528-AV
T3 sequence (P06756 31-992 limits assumed): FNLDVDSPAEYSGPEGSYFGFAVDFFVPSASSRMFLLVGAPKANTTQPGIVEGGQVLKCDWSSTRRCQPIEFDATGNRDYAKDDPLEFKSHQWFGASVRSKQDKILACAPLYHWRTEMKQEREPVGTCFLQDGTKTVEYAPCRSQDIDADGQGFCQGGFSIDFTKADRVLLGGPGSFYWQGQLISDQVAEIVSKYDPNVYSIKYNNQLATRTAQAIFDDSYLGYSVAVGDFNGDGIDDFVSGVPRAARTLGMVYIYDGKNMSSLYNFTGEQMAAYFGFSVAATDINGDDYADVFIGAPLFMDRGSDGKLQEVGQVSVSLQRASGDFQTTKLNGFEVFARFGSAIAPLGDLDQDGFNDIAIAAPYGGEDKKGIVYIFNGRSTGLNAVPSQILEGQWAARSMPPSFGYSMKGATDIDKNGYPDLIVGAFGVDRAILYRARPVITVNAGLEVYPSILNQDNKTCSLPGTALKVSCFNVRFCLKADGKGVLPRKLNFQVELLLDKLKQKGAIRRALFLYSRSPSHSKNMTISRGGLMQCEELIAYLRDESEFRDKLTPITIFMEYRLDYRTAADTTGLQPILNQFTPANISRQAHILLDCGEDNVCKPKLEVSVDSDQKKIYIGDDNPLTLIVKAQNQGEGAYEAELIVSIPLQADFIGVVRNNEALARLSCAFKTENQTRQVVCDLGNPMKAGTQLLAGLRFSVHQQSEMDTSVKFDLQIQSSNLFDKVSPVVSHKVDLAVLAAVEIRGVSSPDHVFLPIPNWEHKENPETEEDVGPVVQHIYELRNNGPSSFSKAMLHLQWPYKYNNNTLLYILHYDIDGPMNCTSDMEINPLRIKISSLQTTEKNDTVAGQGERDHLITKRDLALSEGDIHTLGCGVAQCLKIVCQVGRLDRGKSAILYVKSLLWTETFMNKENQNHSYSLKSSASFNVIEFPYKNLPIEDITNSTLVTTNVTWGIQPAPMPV
T3 sequence (P18084 24-719 limits assumed): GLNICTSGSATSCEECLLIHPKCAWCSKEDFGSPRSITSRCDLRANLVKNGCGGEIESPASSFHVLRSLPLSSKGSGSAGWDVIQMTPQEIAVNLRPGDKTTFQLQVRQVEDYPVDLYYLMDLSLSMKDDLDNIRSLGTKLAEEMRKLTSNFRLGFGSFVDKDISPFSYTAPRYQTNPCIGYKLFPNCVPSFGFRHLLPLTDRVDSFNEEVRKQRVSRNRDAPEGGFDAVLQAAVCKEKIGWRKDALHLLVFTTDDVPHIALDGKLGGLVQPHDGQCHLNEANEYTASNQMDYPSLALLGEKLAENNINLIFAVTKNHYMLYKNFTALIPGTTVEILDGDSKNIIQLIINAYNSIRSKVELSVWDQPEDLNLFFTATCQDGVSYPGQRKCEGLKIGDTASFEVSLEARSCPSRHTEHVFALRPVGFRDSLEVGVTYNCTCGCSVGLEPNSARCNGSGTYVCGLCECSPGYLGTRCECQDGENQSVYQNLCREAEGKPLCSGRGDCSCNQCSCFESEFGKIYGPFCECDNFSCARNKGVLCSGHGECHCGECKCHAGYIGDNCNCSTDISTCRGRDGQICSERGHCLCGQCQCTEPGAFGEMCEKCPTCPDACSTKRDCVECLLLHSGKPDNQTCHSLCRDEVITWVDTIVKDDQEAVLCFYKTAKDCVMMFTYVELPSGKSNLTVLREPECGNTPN
Protocol: Solid Phase Receptor Assay for αvβ5 Function.
as §1, with “150 μL TBS+ and 150” for “150 μL TBS+, and 150”, “at 37° C. and then” for “at 37° C., and then”, “the washed vitronectin-coated plate according” for “the washed LAP-coated plate according”, “TBS+/0.1% BSA at 0.5 μg/mL were added” for “TBS+/0.1% BSA were added”, “the plate covered and” for “the plate was covered and”, “peroxidase (R&D Systems DY998) diluted” for “peroxidase (R&D Systems, DY998) diluted”

T1 sequence (P06756 31-992 limits assumed): as the sequence (P06756 31-992 limits assumed) above
T1 sequence (P18564 22-707 limits assumed): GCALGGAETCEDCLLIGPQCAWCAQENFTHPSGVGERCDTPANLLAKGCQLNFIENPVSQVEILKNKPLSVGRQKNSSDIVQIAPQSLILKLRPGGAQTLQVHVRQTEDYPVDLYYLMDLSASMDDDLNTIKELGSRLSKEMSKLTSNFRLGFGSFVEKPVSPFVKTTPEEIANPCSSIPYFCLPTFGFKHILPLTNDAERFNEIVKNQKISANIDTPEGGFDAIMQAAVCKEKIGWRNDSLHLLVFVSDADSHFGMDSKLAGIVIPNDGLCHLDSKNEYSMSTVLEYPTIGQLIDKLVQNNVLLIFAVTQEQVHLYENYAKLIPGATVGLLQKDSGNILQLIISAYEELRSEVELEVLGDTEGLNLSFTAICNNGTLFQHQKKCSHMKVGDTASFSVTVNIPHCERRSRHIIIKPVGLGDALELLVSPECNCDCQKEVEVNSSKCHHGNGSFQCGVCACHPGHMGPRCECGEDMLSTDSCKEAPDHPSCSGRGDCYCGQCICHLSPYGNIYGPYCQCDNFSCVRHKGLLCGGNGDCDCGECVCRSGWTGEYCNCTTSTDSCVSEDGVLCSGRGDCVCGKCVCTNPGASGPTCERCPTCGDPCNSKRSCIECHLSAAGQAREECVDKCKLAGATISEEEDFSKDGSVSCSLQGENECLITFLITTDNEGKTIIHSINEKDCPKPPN

Compound	IC50 [1] [nM]	IC50 [2] [nM]	IC50 [3] [nM]
CC(O)(c1cc(Cl)cc([C@H](CC(=O)O)NC(=O)CNC(=O)c2cc(O)cc(NC3=NCC(O)CN3)c2)c1)C(F)(F)F (stereo partly drawn) [Example 23, (3S)-3-(3-chloro-5-(1,1,1-trifluoro-2-hydroxypropan-2-yl)phenyl)-3-(2-(3-hydroxy-5-((5-hydroxy-1,4,5,6-tetrahydropyrimidin-2-yl)amino)benzamido)acetamido)propanoic acid]	0.4	0.3	0.5
O=C(O)C[C@H](NC(=O)CNC(=O)c1cc(O)cc(NC2=NCC(O)CN2)c1)c1cc(Br)cc(C2(C(F)F)CC2)c1 (stereo partly drawn) [Example 26, (3S)-3-(3-bromo-5-(1-(difluoromethyl)cyclopropyl)phenyl)-3-(2-(3-hydroxy-5-((5-hydroxy-1,4,5,6-tetrahydropyrimidin-2-yl)amino)benzamido)acetamido)propanoic acid]	0.1	0.1	0.5
CC(C)(c1cc(Cl)cc([C@H](CC(=O)O)NC(=O)CNC(=O)c2cc(O)cc(NC3=NCC(O)CN3)c2)c1)C(F)(F)F (stereo partly drawn) [Example 24, (3S)-3-(3-chloro-5-(1,1,1-trifluoro-2-methylpropan-2-yl)phenyl)-3-(2-(3-hydroxy-5-((5-hydroxy-1,4,5,6-tetrahydropyrimidin-2-yl)amino)benzamido)acetamido)propanoic acid]	0.4	0.3	0.3
CC(O)(c1cc([C@H](CC(=O)O)NC(=O)CNC(=O)c2cc(O)cc(NC3=NCC(O)CN3)c2)cc(C(F)(F)F)c1)C(F)(F)F (stereo partly drawn) [Example 25, (3S)-3-(2-(3-hydroxy-5-((5-hydroxy-1,4,5,6-tetrahydropyrimidin-2-yl)amino)benzamido)acetamido)-3-(3-(1,1,1-trifluoro-2-hydroxypropan-2-yl)-5-(trifluoromethyl)phenyl)propanoic acid]	0.4	0.4	1.3
N#CC1(c2cc(Cl)cc([C@H](CC(=O)O)NC(=O)CNC(=O)c3cc(O)cc(NC4=NCC(O)CN4)c3)c2)CCOCC1 (stereo partly drawn) [Example 22, (3S)-3-(3-chloro-5-(4-cyanotetrahydro-2H-pyran-4-yl)phenyl)-3-(2-(3-hydroxy-5-((5-hydroxy-1,4,5,6-tetrahydropyrimidin-2-yl)amino)benzamido)acetamido)propanoic acid]	0.3	0.3	0.4
N#CC1(c2cc(Cl)cc([C@H](CC(=O)O)NC(=O)CNC(=O)c3cc(O)cc(NC4=NCC(O)CN4)c3)c2)CCC1 (stereo partly drawn) [Example 21, (3S)-3-(3-chloro-5-(1-cyanocyclobutyl)phenyl)-3-(2-(3-hydroxy-5-((5-hydroxy-1,4,5,6-tetrahydropyrimidin-2-yl)amino)benzamido)acetamido)propanoic acid]	0.3	0.3	0.4
